Laboratory results taken from patent US11365199B2, “Pyrazole compounds as modulators of FSHR and uses thereof” (Merck Patent GmbH, priority 2013, dated 2022).
Structures can show the parent of a compound that is named as a salt.

What follows are compounds tested against T1, FSHR (Homo sapiens, UniProt P23945) (assay: EC50 of cyclic AMP production in CHO FSHR cells + EC20 FSH (Assay A)). Conditions: not given.
T1 construct: expressed in transfected cells; host or cells: CHO (Cho-FSHR-LUC-1-1-43)
T1 sequence (P23945 18-695): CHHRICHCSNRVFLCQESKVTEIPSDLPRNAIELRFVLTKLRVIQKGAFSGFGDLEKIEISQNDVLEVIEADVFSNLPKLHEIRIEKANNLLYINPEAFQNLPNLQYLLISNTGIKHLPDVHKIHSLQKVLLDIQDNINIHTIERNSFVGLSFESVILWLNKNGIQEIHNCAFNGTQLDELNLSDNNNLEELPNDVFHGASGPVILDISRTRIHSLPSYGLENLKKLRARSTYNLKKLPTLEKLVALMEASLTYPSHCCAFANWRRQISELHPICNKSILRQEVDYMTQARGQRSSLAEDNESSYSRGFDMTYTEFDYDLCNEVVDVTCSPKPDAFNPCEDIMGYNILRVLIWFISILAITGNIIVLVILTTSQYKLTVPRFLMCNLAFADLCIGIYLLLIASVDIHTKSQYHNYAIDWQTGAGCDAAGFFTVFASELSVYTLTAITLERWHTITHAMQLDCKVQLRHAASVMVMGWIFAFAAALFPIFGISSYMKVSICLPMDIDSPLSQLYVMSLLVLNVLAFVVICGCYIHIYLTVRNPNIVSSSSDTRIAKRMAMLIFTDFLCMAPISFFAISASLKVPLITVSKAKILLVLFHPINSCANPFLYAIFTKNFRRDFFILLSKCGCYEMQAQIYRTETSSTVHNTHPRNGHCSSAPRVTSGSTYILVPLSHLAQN
Type: cell-based
Experimental: EC50 of Cyclic AMP Production in CHO FSHR Cells+EC20 FSH (Assay A)
2500 Cho-FSHR-LUC-1-1-43 cells were plated per well in 5 μl of phenol red free DMEM/F12+1% FBS. Cells were plated in 384 well, solid white low volume plates (Greiner 784075) by Multidrop. Cells were assayed by adding 100 μl of 2×EC20 FSH/IBMX in DMEM/F12+0.1% BSA) by Multidrop to 2 μl of test compound stamped in 384 well plates (compounds are diluted 1:50). The final FSH concentration was […], and the final IBMX concentration was 200 μM. The compound plate map was as follows: Column 1: 2 μl of DMSO; Column 2: 2 μl of DMSO; Columns 3-12 and 13-24: 2 μl of test compound, diluted 1:4 in 100% DMSO, or 2 μl of FSH, diluted 1:4 in DMEM/F12+0.1% BSA. The starting concentration for FSH was 50 nM (final concentration was 0.5 nM). Furthermore, Column 23 contained 2 μl of EC100 FSH reference (100×) (diluted in DMEM/F12+0.1% BSA) at a final concentration of 0.5 nM, and Column 24 contained 2 μl of 1 mM AS707664/2 reference compound 2. 5 μl of compound+EC20 FSH mixture were transferred to cell plates (1:2 dilution into 5 μl of cell media) The plates were incubated at 37° C. for 1 h. 10 μl of mixed HTRF (CisBio #62AM4PEC) reagents were added per well and incubated at room temperature for 1 h. The plates were read on Envision using the cAMP HTRF—low volume 384 well protocol. The readout was the calculated fluorescence ratio (665 nm/620 nm). Values given in percent (%) indicate the percental effect (response) at a certain concentration of agonist relative to the maximum response of the FSH standard.
`COCC(C)(C)N(C)C(=O)c1nn(-c2ccsc2)c2c1COc1cc(OC)c(C=C(C)C)cc1-2` [Compound 31] was tested, and the EC50 was less than 100 nM.

Same assay, conditions: CHO FSHR cells + EC20 FSH, cAMP HTRF; read-out: Assay A: EC50 of cyclic AMP production
`COc1cc2c(cc1C=C(C)C)-c1c(c(C(=O)NCCCNC(C)=O)nn1-c1ccsc1)CO2` [Compound 8, 7-Methoxy-8-(2-methyl-propenyl)-1-thiophen-3-yl-1,4-dihydro-chromeno[4,3-c]pyrazole-3-carboxylic acid (3-acetylamino-propyl)-amide] showed an EC50 greater than 5000 nM. `COc1cc2c(cc1C=C(C)C)-c1c(c(C(=O)NCCCc3nnn[nH]3)nn1-c1ccsc1)CO2` [Compound 11, 7-Methoxy-8-(2-methyl-propenyl)-1-thiophen-3-yl-1,4-dihydro-chromeno[4,3-c]pyrazole-3-carboxylic acid [3-(1H-tetrazol-5-yl)-propyl]-amide; trifluoro-acetic acid salt] was tested, and the EC50 was 1000 to 5000 nM. In the case of `CCOC(=O)C1CCN(C(=O)c2nn(-c3ccsc3)c3c2COc2cc(OC)c(C=C(C)C)cc2-3)CC1` [Compound 14, 1-{7-Methoxy-8-(2-methyl-propenyl)-1-thiophen-3-yl-1,4-dihydro-chromeno[4,3-c]pyrazole-3-carbonyl]-piperidine-4-carboxylic acid ethyl ester], the EC50 is reported as 1000 to 5000 nM. `COc1cc2c(cc1C=C(C)C)-c1c(c(C(=O)NC3CCCC(C(=O)OC(C)(C)C)C3)nn1-c1ccsc1)CO2` (stereo not drawn) [Compound 15, 3-{[7-Methoxy-8-(2-methyl-propenyl)-1-thiophen-3-yl-1,4-dihydro-chromeno[4,3-c]pyrazole-3-carbonyl]-amino}-cyclohexanecarboxylic acid tert-butyl ester] was tested, and the EC50 was greater than 5000 nM. With `COc1cc2c(cc1C=C(C)C)-c1c(c(C(=O)N3CCC(C(=O)O)CC3)nn1-c1ccsc1)CO2` [Compound 16, 1-{7-Methoxy-8-(2-methyl-propenyl)-1-thiophen-3-yl-1,4-dihydro-chromeno[4,3-c]pyrazole-3-carbonyl]-piperidine-4-carboxylic acid] the EC50 was greater than 5000 nM. `CNC(=O)c1nn(-c2ccsc2)c2c1COc1cc(OC)c(-c3cn[nH]c3)cc1-2` [Compound 22, 7-Methoxy-8-(1H-pyrazol-4-yl)-1-thiophen-3-yl-1,4-dihydro-chromeno[4,3-c]pyrazole-3-carboxylic Acid Methylamide] showed an EC50 of 1000 to 5000 nM. `COc1cc2c(cc1OC(C)C)-c1c(c(C(=O)N3CCCC(C(=O)O)CC3)nn1-c1ccsc1)CO2` (stereo not drawn) [Compound 25, 1-(8-Isopropoxy-7-methoxy-1-thiophen-3-yl-1,4-dihydro-chromeno[4,3-c]pyrazole-3-carbonyl)-azepane-4-carboxylic acid] gave an EC50 greater than 5000 nM. For `COc1cc2c(cc1OC(C)C)-c1c(c(C(=O)NCCCN)nn1-c1ccsc1)CO2` [Compound 27, 8-Isopropoxy-7-methoxy-1-thiophen-3-yl-1,4-dihydro-chromeno[4,3-c]pyrazole-3-carboxylic acid (3-amino-propyl)-amide], the EC50 was greater than 5000 nM. With `COc1cc2c(cc1OC(C)C)-c1c(c(C(=O)N(C)CCN(C)C(=O)C3CCC3)nn1-c1ccsc1)CO2` [Compound 29] the EC50 was less than 100 nM. For `COc1cc2c(cc1OC(C)C)-c1c(c(C(=O)N(C)CCCN(C)C(=O)C3CCC3)nn1-c1ccsc1)CO2` [Compound 30], the EC50 was 100 to 1000 nM. Work on `COc1cc2c(cc1C=C(C)C)-c1c(c(C(=O)N(C)CCCN(C)C(C)=O)nn1-c1ccsc1)CO2` [Compound 32] yielded an EC50 of 100 to 1000 nM. `COc1cc2c(cc1C=C(C)C)-c1c(c(C(=O)N(C)CCCN3CCOC3=O)nn1-c1ccsc1)CO2` [Compound 33] showed an EC50 of 100 to 1000 nM. With `COc1cc2c(cc1C=C(C)C)-c1c(c(C(=O)N(C)CCN(C)C(C)=O)nn1-c1ccsc1)CO2` [Compound 34] the EC50 was less than 100 nM. Compound `COc1cc2c(cc1C=C(C)C)-c1c(c(C(=O)N3CCCC(NC(=O)OC(C)(C)C)CC3)nn1-c1ccsc1)CO2` (stereo not drawn) [Compound 35, {1-[7-Methoxy-8-(2-methyl-propenyl)-1-thiophen-3-yl-1,4-dihydro-chromeno[4,3-c]pyrazole-3-carbonyl]-azepan-4-yl}-carbamic acid tert-butyl ester] has an EC50 of 1000 to 5000 nM. In the case of `COc1cc2c(cc1C=C(C)C)-c1c(c(C(=O)N3CCCC(N)CC3)nn1-c1ccsc1)CO2` (stereo not drawn) [Compound 36, (4-Amino-azepan-1-yl)-[7-methoxy-8-(2-methyl-propenyl)-1-thiophen-3-yl-1,4-dihydro-chromeno[4,3-c]pyrazol-3-yl]-methanone], the EC50 is reported as 100 to 1000 nM. `COc1cc2c(cc1C=C(C)C)-c1c(c(C(=O)N3CCCC(NC(=O)C4CCC4)CC3)nn1-c1ccsc1)CO2` (stereo not drawn) [Compound 37, Cyclobutanecarboxylic acid {1-[7-methoxy-8-(2-methyl-propenyl)-1-thiophen-3-yl-1,4-dihydro-chromeno[4,3-c]pyrazole-3-carbonyl]-azepan-4-yl}-amide] showed an EC50 of 1000 to 5000 nM. `COc1cc2c(cc1C(O)C(C)(C)O)-c1c(c(C(=O)N(C)C(C)(C)C)nn1-c1ccsc1)CO2` (stereo not drawn) [Compound 38, 8-(1,2-Dihydroxy-2-methyl-propyl)-7-methoxy-1-thiophen-3-yl-1,4-dihydro-chromeno[4,3-c]pyrazole-3-carboxylic Acid tert-butyl-methyl-amide] was tested, and the EC50 was 1000 to 5000 nM. `COc1cc2c(cc1C=C(C)C)-c1c(c(C(=O)N3CCOCC3(C)C)nn1-c1ccsc1)CO2` [Compound 39, (3,3-Dimethyl-morpholin-4-yl)-[7-methoxy-8-(2-methyl-propenyl)-1-thiophen-3-yl-1,4-dihydro-chromeno[4,3-c]pyrazol-3-yl]-methanone] gave an EC50 of less than 100 nM. `COc1cc2c(cc1C=C(C)C)-c1c(c(C(=O)N(C)C(C)(C)CO)nn1-c1ccsc1)CO2` [Compound 40, 7-Methoxy-8-(2-methyl-propenyl)-1-thiophen-3-yl-1,4-dihydro-chromeno[4,3-c]pyrazole-3-carboxylic acid (2-hydroxy-1,1-dimethyl-ethyl)-methyl-amide] was tested, and the EC50 was less than 100 nM. With `COc1cc2c(cc1C=C(C)C)-c1c(c(C(=O)N3CCCC(C(=O)N(C)C)CC3)nn1-c1ccsc1)CO2` (stereo not drawn) [Compound 41, 1-[7-Methoxy-8-(2-methyl-propenyl)-1-thiophen-3-yl-1,4-dihydro-chromeno[4,3-c]pyrazole-3-carbonyl]-azepane-4-carboxylic Acid Dimethylamide] the EC50 was 100 to 1000 nM. With `CNC(=O)C1CCCN(C(=O)c2nn(-c3ccsc3)c3c2COc2cc(OC)c(C=C(C)C)cc2-3)CC1` (stereo not drawn) [Compound 42, 1-[7-Methoxy-8-(2-methyl-propenyl)-1-thiophen-3-yl-1,4-dihydro-chromeno[4,3-c]pyrazole-3-carbonyl]-azepane-4-carboxylic Acid Methylamide] the EC50 was 100 to 1000 nM. With `COc1cc2c(cc1C=C(C)C)-c1c(c(C(=O)N3CCCC(C(N)=O)CC3)nn1-c1ccsc1)CO2` (stereo not drawn) [Compound 43, 1-[7-methoxy-8-(2-methyl-propenyl)-1-thiophen-3-yl-1,4-dihydro-chromeno[4,3-c]pyrazole-3-carbonyl]-azepane-4-carboxylic Acid Amide] the EC50 was less than 100 nM. Compound `COc1cc2c(cc1C=C(C)C)-c1c(c(C(=O)N3CCC34COC4)nn1-c1ccsc1)CO2` [Compound 44, [7-Methoxy-8-(2-methyl-propenyl)-1-thiophen-3-yl-1,4-dihydro-chromeno[4,3-c]pyrazol-3-yl]-(6-oxa-1-aza-spiro[3.3]hept-1-yl)-methanone] has an EC50 of 100 to 1000 nM.
